Laboratory results from patent US8696867B2, “Disulfo-type fluorescent whitening agents” (Blankophor GmbH & Co. KG, priority 2009, dated 2014).

How the values were obtained:
[1] = Solubility of fluorescent whitening agent in distilled water (saturated solution); assay type: physicochemical; conditions: ambient temperature (about 22° C.), grams FWA dissolved in 100 g saturated FWA solution
Protocol: The solubility of the fluorescent whitening agents was determined as follows: a dry powder of fluorescent whitening agent was added to 50 ml of distilled water until the saturation point was reached. The thus obtained saturated solution was filtered, dried and the dried residue was weighted.
The indicated percentages are based on the amount of grams of fluorescent whitening agent dissolved in 100 g of the corresponding saturated FWA solution.

[2] = Storage stability of approximately 20% aqueous solution; assay type: physicochemical; conditions: approximately 20% solution, ambient temperature and 4° C., without stirring
Protocol: The stability behavior was studied by storing an approximately 20% solution of FWA 1 and FWA 2, respectively, at ambient temperature and at 4° C., each without stirring. The aqueous brightener preparations have a shelf-life of more than 30 days both at ambient and low temperature.

| Structure (SMILES) | solubility [1] [%] | crystalline precipitates on storage [2] |
| --- | --- | --- |
| O=C([O-])c1ccc(Nc2nc(Nc3ccc(/C=C/c4ccc(Nc5nc(Nc6ccc(C(=O)[O-])cc6)nc(N(CCO)CCO)n5)cc4S(=O)(=O)[O-])c(S(=O)(=O)[O-])c3)nc(N(CCO)CCO)n2)cc1.[Na+].[Na+].[Na+].[Na+] [FWA 1] | 27.8 | no crystalline precipitates |
| CC(O)CN(CC(C)O)c1nc(Nc2ccc(C(=O)[O-])cc2)nc(Nc2ccc(/C=C/c3ccc(Nc4nc(Nc5ccc(C(=O)[O-])cc5)nc(N(CC(C)O)CC(C)O)n4)cc3S(=O)(=O)[O-])c(S(=O)(=O)[O-])c2)n1.[Na+].[Na+].[Na+].[Na+] (stereo not shown) [FWA 2] | 24.2 | no crystalline precipitates |
